These results are taken from patent US9981975B2, “Pyrrolotriazine compounds as tam inhibitors” (Incyte Corporation, priority 2016, dated 2018).

Sequence of Tyro3 (Q06418 41-890): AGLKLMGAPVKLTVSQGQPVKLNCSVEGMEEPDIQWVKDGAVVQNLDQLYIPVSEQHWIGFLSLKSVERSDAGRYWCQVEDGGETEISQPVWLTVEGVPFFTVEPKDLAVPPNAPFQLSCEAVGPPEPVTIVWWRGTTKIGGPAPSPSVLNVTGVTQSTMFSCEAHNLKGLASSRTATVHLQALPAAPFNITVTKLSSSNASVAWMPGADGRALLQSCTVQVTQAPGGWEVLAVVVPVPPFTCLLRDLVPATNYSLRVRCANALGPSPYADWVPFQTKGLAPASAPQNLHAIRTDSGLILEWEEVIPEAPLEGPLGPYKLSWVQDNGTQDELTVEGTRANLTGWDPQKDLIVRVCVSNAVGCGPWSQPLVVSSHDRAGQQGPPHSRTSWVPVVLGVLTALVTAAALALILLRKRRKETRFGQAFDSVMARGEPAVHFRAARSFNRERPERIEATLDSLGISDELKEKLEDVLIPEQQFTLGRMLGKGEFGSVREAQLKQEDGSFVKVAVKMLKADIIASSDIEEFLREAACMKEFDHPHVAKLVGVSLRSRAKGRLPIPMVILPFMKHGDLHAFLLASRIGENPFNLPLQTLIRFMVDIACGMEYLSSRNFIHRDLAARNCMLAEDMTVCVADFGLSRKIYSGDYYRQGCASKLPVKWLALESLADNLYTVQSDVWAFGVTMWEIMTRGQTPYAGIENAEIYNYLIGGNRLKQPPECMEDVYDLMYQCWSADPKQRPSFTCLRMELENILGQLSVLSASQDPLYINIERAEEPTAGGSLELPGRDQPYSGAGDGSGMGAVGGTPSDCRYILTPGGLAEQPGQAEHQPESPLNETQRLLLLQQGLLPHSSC
Sequence of phosphor-Axl (P30530 26-894): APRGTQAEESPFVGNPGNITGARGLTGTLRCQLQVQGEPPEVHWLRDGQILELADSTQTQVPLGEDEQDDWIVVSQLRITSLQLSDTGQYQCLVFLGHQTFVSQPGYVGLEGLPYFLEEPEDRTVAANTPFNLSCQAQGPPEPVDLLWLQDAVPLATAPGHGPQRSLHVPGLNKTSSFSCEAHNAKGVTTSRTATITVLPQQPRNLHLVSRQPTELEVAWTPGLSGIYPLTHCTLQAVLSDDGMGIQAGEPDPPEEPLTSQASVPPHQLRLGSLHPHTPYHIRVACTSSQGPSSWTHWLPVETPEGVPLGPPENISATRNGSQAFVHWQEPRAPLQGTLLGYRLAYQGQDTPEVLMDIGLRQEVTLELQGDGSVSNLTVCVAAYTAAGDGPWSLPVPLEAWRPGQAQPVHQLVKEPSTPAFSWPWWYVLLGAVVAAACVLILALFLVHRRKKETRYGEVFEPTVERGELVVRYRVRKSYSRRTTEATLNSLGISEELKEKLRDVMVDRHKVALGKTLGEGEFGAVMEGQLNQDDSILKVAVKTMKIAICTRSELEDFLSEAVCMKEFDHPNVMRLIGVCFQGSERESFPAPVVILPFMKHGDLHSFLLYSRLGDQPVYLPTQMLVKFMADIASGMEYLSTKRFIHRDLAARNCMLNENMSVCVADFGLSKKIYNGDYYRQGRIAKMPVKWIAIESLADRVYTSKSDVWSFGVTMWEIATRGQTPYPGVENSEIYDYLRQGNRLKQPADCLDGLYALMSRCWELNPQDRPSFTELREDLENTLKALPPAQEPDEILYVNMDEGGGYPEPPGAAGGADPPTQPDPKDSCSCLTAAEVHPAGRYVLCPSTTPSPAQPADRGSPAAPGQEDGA

One experiment concerns the target phosphor-Axl (Homo sapiens (Human), UniProt P30530). In words: TAM Enzymatic Assay (HTRF), Axl. The format is biochemical. As to conditions: recombinant autophosphorylated Axl, 60 min, room temperature. As for the experimental part: Autophosphorylation of Axl was carried out by incubating the recombinant Axl protein (Life Technologies, PV4275) in buffer containing 50 mM Tris, pH7.5, 0.2 mg/ml Axl, 5 mM ATP, 20 mM MgCl2 and 2 mM DTT at room temperature for 1 hour.
(§1) The kinase assay buffer contained 50 mM HEPES, pH7.5, 10 mM MgCl2, 1 mM EGTA, 0.01% NP-40 and 2 mM DTT. 0.1 ul test compounds dissolved in DMSO were transferred from compound plates to white 384-well assay plates (Greiner […] plates). […] 4 ul enzyme solution (or assay buffer for the enzyme blank) was added to the appropriate wells in each plate, and then 4 ul/well substrate solution was added to initiate the reaction. The plate was protected from light and incubated at room temperature for 60 min. […] The plate was incubated for 1 h at room temperature, and HTRF (homogenous time resolved fluorescence) signal was measured on a PHERAstar FS plate reader (BMG labtech). Percentage of inhibition was calculated for each concentration and IC50 value was generated from curve fitting with GraphPad Prism software.
Consider `CC(C)C(=O)N1CCC(c2cc(-c3ccc(NC(=O)c4cn(C(C)C)c(=O)n(-c5ncccn5)c4=O)cc3)c3c(N)ncnn23)CC1` [Example 143, N-(4-(4-Amino-7-(1-isobutyrylpiperidin-4-yl)pyrrolo[1,2-f][1,2,4]triazin-5-yl)phenyl)-1-isopropyl-2,4-dioxo-3-(pyrimidin-2-yl)-1,2,3,4-tetrahydropyrimidine-5-carboxamide], for which the IC50 is ≤ 5 nM. As for `Nc1ncnn2c(C3CCN(CCO)CC3)cc(-c3ccc(NC(=O)c4cc5c(n(-c6ccc(F)cc6)c4=O)CCCC5=O)cc3F)c12` [Example 60, N-(4-{4-Amino-7-[1-(2-hydroxyethyl)piperidin-4-yl]pyrrolo[2,1-f][1,2,4]triazin-5-yl}-3-fluorophenyl)-1-(4-fluorophenyl)-2,5-dioxo-1,2,5,6,7,8-hexahydroquinoline-3-carboxamide], the IC50 is ≤ 5 nM.

For `CCN(C)C(=O)N1CCC(c2cc(-c3ccc(NC(=O)c4cn(C(C)C)c(=O)n(-c5ccc(F)cc5)c4=O)cc3)c3c(N)ncnn23)CC1` [Example 66, N-(4-(4-Amino-7-(1-(ethyl(methyl)carbamoyl)piperidin-4-yl)pyrrolo[1,2-f][1,2,4]triazin-5-yl)phenyl)-3-(4-fluorophenyl)-1-isopropyl-2,4-dioxo-1,2,3,4-tetrahydropyrimidine-5-carboxamide], the IC50 is ≤ 5 nM. Turning to `Cc1ccc(-c2ccc(C(=O)Nc3ccc(-c4cc(C5CCN(C(=O)C(C)C)CC5)n5ncnc(N)c45)cc3)c(=O)n2-c2ccccc2)cn1` [Example 105, N-(4-(4-Amino-7-(1-isobutyrylpiperidin-4-yl)pyrrolo[2,1-f][1,2,4]triazin-5-yl)phenyl)-6′-methyl-6-oxo-1-phenyl-1,6-dihydro-[2,3′-bipyridine]-5-carboxamide], the IC50 is ≤ 5 nM. The same measure, in the same setting: under `CC(C)C(=O)N1CCC(c2cc(-c3ccc(NC(=O)c4cn(C(C)C)c(=O)n(-c5cccc(F)c5)c4=O)cc3)c3c(N)ncnn23)CC1` [Example 71, N-(4-(4-Amino-7-(1-isobutyrylpiperidin-4-yl)pyrrolo[1,2-f][1,2,4]triazin-5-yl)phenyl)-3-(3-fluorophenyl)-1-isopropyl-2,4-dioxo-1,2,3,4-tetrahydropyrimidine-5-carboxamide] stands ≤ 5 nM; under `Cc1c(-c2ccnn2C)c(=O)c(C(=O)Nc2ccc(-c3cc(C4CCN(C(=O)C(C)C)CC4)n4ncnc(N)c34)cc2)cn1C(C)C` [Example 97, N-(4-(4-Amino-7-(1-isobutyrylpiperidin-4-yl)pyrrolo[2,1-f][1,2,4]triazin-5-yl)phenyl)-1-isopropyl-6-methyl-5-(1-methyl-1H-pyrazol-5-yl)-4-oxo-1,4-dihydropyridine-3-carboxamide], ≤ 5 nM.

In a further experiment the target is Tyro3 (Homo sapiens (Human), UniProt Q06418). As to the kind of experiment: TAM Enzymatic Assay (HTRF), Tyro3. The format is biochemical. Particulars: Tyro3, 60 min, room temperature. On the procedure:
as §1
Regarding `Cc1cc(-c2ccc(NC(=O)c3cccn(-c4ccccc4)c3=O)cc2F)c2c(N)ncnn12` [Example 10, N-[4-(4-Amino-7-methylpyrrolo[2,1-f][1,2,4]triazin-5-yl)-3-fluorophenyl]-2-oxo-1-phenyl-1,2-dihydropyridine-3-carboxamide], the IC50 was > 100 nM. Still for that read-out and setting: the result for `CC(C)C(=O)N1CCC(c2cc(-c3ccc(NC(=O)c4cn(C(C)C)c(=O)n(-c5ncccn5)c4=O)cc3)c3c(N)ncnn23)CC1` [Example 143, N-(4-(4-Amino-7-(1-isobutyrylpiperidin-4-yl)pyrrolo[1,2-f][1,2,4]triazin-5-yl)phenyl)-1-isopropyl-2,4-dioxo-3-(pyrimidin-2-yl)-1,2,3,4-tetrahydropyrimidine-5-carboxamide] reads > 100 nM. Regarding `CC(C)C(=O)N1CCC(c2cc(-c3ccc(NC(=O)c4cn(C(C)C)c(=O)n(C5CCCCC5)c4=O)cc3)c3c(N)ncnn23)CC1` [Example 90, N-(4-(4-Amino-7-(1-isobutyrylpiperidin-4-yl)pyrrolo[2,1-f][1,2,4]triazin-5-yl)phenyl)-3-cyclohexyl-1-isopropyl-2,4-dioxo-1,2,3,4-tetrahydropyrimidine-5-carboxamide], the IC50 is > 100 nM. For the compound `Cc1cc(-c2ccc(NC(=O)c3cccn(-c4ccc(F)cc4)c3=O)cc2F)c2c(N)ncnn12` [Example 11, N-[4-(4-Amino-7-methylpyrrolo[2,1-f][1,2,4]triazin-5-yl)-3-fluorophenyl]-1-(4-fluorophenyl)-2-oxo-1,2-dihydropyridine-3-carboxamide], the IC50 is > 100 nM. Same read-out and setting: under `CS(=O)(=O)N1CCC(c2cc(-c3ccc(NC(=O)c4cccn(-c5ccccc5)c4=O)cc3)c3c(N)ncnn23)CC1` [Example 40, N-(4-{4-Amino-7-[1-(methylsulfonyl)piperidin-4-yl]pyrrolo[2,1-f][1,2,4]triazin-5-yl}phenyl)-2-oxo-1-phenyl-1,2-dihydropyridine-3-carboxamide] stands > 100 nM; under `COC(=O)N1CCC(c2cc(-c3ccc(NC(=O)c4cccn(-c5ccccc5)c4=O)cc3)c3c(N)ncnn23)CC1` [Example 36, Methyl 4-[4-amino-5-(4-{[(2-oxo-1-phenyl-1,2-dihydropyridin-3-yl)carbonyl]amino}phenyl)pyrrolo[2,1-f][1,2,4]triazin-7-yl]piperidine-1-carboxylate], > 100 nM; under `Nc1ncnn2c(C3CCOCC3)cc(-c3ccc(NC(=O)c4cccn(-c5ccccc5)c4=O)cc3)c12` [Example 13, N-{4-[4-Amino-7-(tetrahydro-2H-pyran-4-yl)pyrrolo[2,1-f][1,2,4]triazin-5-yl]phenyl}-2-oxo-1-phenyl-1,2-dihydropyridine-3-carboxamide], > 100 nM.

In turn, `CC(C)n1cc(C(=O)Nc2ccc(-c3cc(C4CCN(C5CCN(C)C5=O)CC4)n4ncnc(N)c34)cc2)c(=O)n(-c2ccccc2)c1=O` (racemic) [Example 82, N-(4-(4-Amino-7-(1-(1-methyl-2-oxopyrrolidin-3-yl)piperidin-4-yl)pyrrolo[1,2-f][1,2,4]triazin-5-yl)phenyl)-1-isopropyl-2,4-dioxo-3-phenyl-1,2,3,4-tetrahydropyrimidine-5-carboxamide] came in with an IC50 of 10 to 100 nM. For `CCc1cc(-c2ccc(NC(=O)c3cccn([C@@H](CO)c4ccccc4)c3=O)cc2)c2c(N)ncnn12` [Example 2, N-[4-(4-Amino-7-ethylpyrrolo[2,1-f][1,2,4]triazin-5-yl)phenyl]-1-[(1R)-2-hydroxy-1-phenylethyl]-2-oxo-1,2-dihydropyridine-3-carboxamide], the IC50 was > 100 nM. The same measure, in the same setting: under `CN1CCC(c2cc(-c3ccc(NC(=O)c4cccn(-c5ccccc5)c4=O)cc3)c3c(N)ncnn23)CC1` [Example 20, N-{4-[4-Amino-7-(1-methylpiperidin-4-yl)pyrrolo[2,1-f][1,2,4]triazin-5-yl]phenyl}-2-oxo-1-phenyl-1,2-dihydropyridine-3-carboxamide] stands > 100 nM. Regarding `CC(C)n1cc(C(=O)Nc2ccc(-c3cc(C(=O)N(C)C)n4ncnc(N)c34)cc2)c(=O)n(-c2cccc(F)c2)c1=O` [Example 86, 4-Amino-5-(4-(3-(3-fluorophenyl)-1-isopropyl-2,4-dioxo-1,2,3,4-tetrahydropyrimidine-5-carboxamido)phenyl)-N,N-dimethylpyrrolo[2,1-f][1,2,4]triazine-7-carboxamide], the IC50 was > 100 nM. Same read-out and setting: under `Cc1nn(C)c(C)c1-c1cc(-c2ccc(NC(=O)c3cn(C(C)C)c(=O)n(-c4cccc(F)c4)c3=O)cc2)c2c(N)ncnn12` [Example 84, N-(4-(4-Amino-7-(1,3,5-trimethyl-1H-pyrazol-4-yl)pyrrolo[1,2-f][1,2,4]triazin-5-yl)phenyl)-3-(3-fluorophenyl)-1-isopropyl-2,4-dioxo-1,2,3,4-tetrahydropyrimidine-5-carboxamide] stands > 100 nM; under `COc1ccn(-c2ccccc2)c(=O)c1C(=O)Nc1ccc(-c2c(Br)c(C3CCN(C(=O)C(C)C)CC3)n3ncnc(N)c23)cc1` [Example 100, N-(4-(4-Amino-6-bromo-7-(1-isobutyrylpiperidin-4-yl)pyrrolo[1,2-f][1,2,4]triazin-5-yl)phenyl)-4-methoxy-2-oxo-1-phenyl-1,2-dihydropyridine-3-carboxamide], > 100 nM; under `Cc1cc(-c2ccc(NC(=O)c3cccn(-c4ccccc4)c3=O)cc2)c2c(N)ncnn12` [Example 8, N-[4-(4-Amino-7-methylpyrrolo[2,1-f][1,2,4]triazin-5-yl)phenyl]-2-oxo-1-phenyl-1,2-dihydropyridine-3-carboxamide], > 100 nM. The same measure, in the same setting: the result for `CCN(C)C(=O)N1CCC(c2cc(-c3ccc(NC(=O)c4cccn(-c5ccc(F)cc5)c4=O)cc3)c3c(N)ncnn23)CC1` [Example 56, N-{4-[4-Amino-7-(1-{[ethyl(methyl)amino]carbonyl}piperidin-4-yl)pyrrolo[2,1-f][1,2,4]triazin-5-yl]phenyl}-1-(4-fluorophenyl)-2-oxo-1,2-dihydropyridine-3-carboxamide] reads > 100 nM. Consider `CCc1cc(-c2ccc(NC(=O)c3cc4c(n(-c5ccc(F)cc5)c3=O)CCCC4=O)cc2)c2c(N)ncnn12` [Example 1, N-[4-(4-Amino-7-ethylpyrrolo[2,1-f][1,2,4]triazin-5-yl)phenyl]-1-(4-fluorophenyl)-2,5-dioxo-1,2,5,6,7,8-hexahydroquinoline-3-carboxamide], for which the IC50 is > 100 nM.

For the compound `Cc1c(C(N)=O)cc(C(=O)Nc2ccc(-c3cc(C4CCN(C(=O)C(C)C)CC4)n4ncnc(N)c34)cc2)c(=O)n1-c1ccccc1` [Example 111a, N^3-(4-(4-Amino-7-(1-isobutyrylpiperidin-4-yl)pyrrolo[2,1-f][1,2,4]triazin-5-yl)phenyl)-6-methyl-2-oxo-1-phenyl-1,2-dihydropyridine-3,5-dicarboxamide], the IC50 is > 100 nM.
